Reference: patent publication US20230226138A1, “COMPOSITIONS AND METHODS FOR TREATING INFECTIONS AND NETOPATHY” (Black Cat Bio Limited, priority 2020, published 2023)
Read-outs that look alike come from different tables or passages of the source.

Legend:
Src kinase = Src kinase (Homo sapiens, UniProt P12931); conditions: cited from earlier work
P38MAP kinase = conditions: cited from earlier work
[1] = animal disease models; cited from earlier work
[2] = system: NETosis in Neutrophils (H3R8 citrullinated nucleosomes); experiment: NETosis quantified by release of H3R8 citrullinated nucleosomes from stimulated neutrophils; assay type: cell-based, human; conditions: for citrullinated nucleosomes: 4 hours
ACE2 = conditions: 6 hrs
Protocol: (§1) LNCaP (prostate) and A549 (Androgen receptor positive, human alveolar carcinoma-derived cell line with type II pneumonocyte properties) cells were seeded in 12-well plates (2×10^5 cells per well) in phenol red free RPMI-1640 and DMEM media (Lonza), supplemented with 5% and 2% double charcoal stripped FCS (First Link UK) respectively, and 2 mM I-glutamine, 100 units/ml penicillin and […] streptomycin (Sigma). Charcoal stripping was required to remove residual traces of hormones (Sedelaar et al, (2009)). Cells were treated with 0-100 nM dihydrotestosterone (DHT, Sigma) for 6 hrs. RNA was extracted using TRIzol (Thermo Fisher Scientific) and reverse transcribed (LunaScript RT Supermix Kit, NEB). TMPRSS2 and ACE2 expression was quantified using qPCR (LightCycler 96, Roche) and the data normalized to an internal control (L19).

TMPRSS2 [3] = conditions: 6 hrs; for relative expression of TMPRSS2: LNCaP
Protocol: as §1

TMPRSS2 [4] = assay type: cell-based, human; conditions: for TMPRSS2 protein expression: relative to non-DHT stimulated control
Protocol: (§2) LNCaP and A549 cells were seeded at a density of 1×10^6 in 6-well plates and incubated for 72 hours in phenol red free RPM1-1640 and DMEM media (Lonza), supplemented with 5% and 2% double charcoal stripped FCS (First Link UK) respectively, and 2 mM I-glutamine, 100 units/ml penicillin and […] streptomycin (Sigma). Cells were treated with 100 ng/ml Epithelial Growth Factor (EGF, Sigma) or 1 nM DHT (dihydrotestosterone, Sigma) ±SA Inhibitor for 72 hrs. Cells were harvested and proteins separated using SDS-PAGE. Blots were probed with antibodies specific for TMPRSS2 (ab92323, Abcam) and α-tubulin (B-5-1-2, Sigma). Protein levels were visualized using a chemiluminescence imaging system (Fusion FX, Vilber). Densitometry was performed using Image J and TMPRSS2 levels normalised to the internal control (Tubulin).

TMPRSS2 [5] = assay type: cell-based, human; conditions: for TMPRSS2 protein expression: relative to non-DHT stimulated control; remark: listed apart in the source
Protocol: as §2

Neutrophils (NETosis) [6] = assay type: cell-based, human
Protocol: Neutrophils, isolated as described in Example 4 (or by equivalent methodology as known in the art, for example, Ficoll Density gradient and dextran sedimentation followed by Red blood cell lysis with hypertonic solution) are resuspended in phenol red free RPMI 1640 media at a density of 2×10^6 cells per milliliter and incubated for five minutes in the dark at room temperature with NUCLEAR-ID Red (membrane impermeable) DNA dye to stain nuclei (1 ml/1.5 ml of cell suspension; Enzo Life Sciences). Cells are washed three times to remove free Dye by centrifuging at 2400 RFI for 5 min to pellet the cells and replacing supernatant with 1 ml fresh phenol red free RPMI 1640 media. […]
Neutrophils are imaged within 10 min of plating using phase contrast, red (800-ms exposure), and green (400-ms exposure) channels in an IncuCyte ZOOM platform, housed inside an incubator at 37° C. with 5% CO2. […] The Number of neutrophils is then calculated as the average red count for the three images per well and the Number of green cells calculated as the average green count. The percentage of neutrophils undergoing NETosis is calculated as the average green count divide by the average red count at each time point measured.

TMPRSS2 [7] = experiment: TMPRSS2 protein levels in A549 in full media (SDS-PAGE blot, densitometry); assay type: cell-based, human; conditions: A549, full media (10% FCS), 72 hrs
Protocol: A549 were seeded in 6-well plates at a density of 1×10^6 per well. Cells were incubated in DMEM media (Lonza), supplemented with 10% FCS (HyClone) and 2 mM !-glutamine, 100 units/ml penicillin and 100 mg/ml streptomycin (Sigma). […] Cells were treated with 0-1 μM SA Inhibitor (SEQ ID NO: 2) or 10 μM Enzalutamide (ENZA, Sigma) for 72 hrs. Cells were harvested and proteins separated using SDS-PAGE. Blots were probed with antibodies specific for TMPRSS2 (ab92323, Abcam) and α-tubulin (B-5-1-2, Sigma). Protein levels were visualized using a chemiluminescence imaging system (Fusion FX, Vilber). Densitometry was performed using Image J and TMPRSS2 levels normalized to the internal control (Tubulin).

Neutrophils (NETosis) [8] = experiment: Live cell imaging of IL6 triggered NETosis (Example 6); assay type: cell-based, human
Protocol: In a similar experiment to that described in Example 5, IL6 (Merck, Product Number H7416-10UG) is used to activate NETosis in response to LPS using a similar checkerboard configuration as shown in Table 4 (working IL6 concentrations 0, 10, 50 and 100 ng/mL).

Neutrophils (NETosis) [9] = experiment: Live cell imaging of IL8 triggered NETosis (Example 7); assay type: cell-based, human
Protocol: In a similar experiment to that described in Example 5, IL8 (Merck, Product Number 11645-10UG) is used to activate NETosis in response to LPS using a similar checkerboard configuration as shown in Table 4 (working IL6 concentrations 0, 1, 10 and 100 nM).

[10] = system: COVID-19 patient derived neutrophils (NETosis); experiment: Live cell imaging of NETosis in COVID-19 patient derived neutrophils (Example 8); assay type: cell-based, human; conditions: neutrophils from a SARSCoV-2 patient in intensive care
[11] = system: Staphylococcus aureus infection; experiment: Patient case, bacterial infection with septic shock (Example 10); assay type: in vivo, human; conditions: 4 mg/kg sub-cutaneous once daily, antibiotics also administered, after a few days
Protocol: A patient is seen in the Emergency Room. The patient is running a temperature of 102° F. with a heart rate exceeding 90 beats/minute and rapid breathing. Septic shock is confirmed based on the requirement for vasopresser administration to maintain a mean arterial pressure of 65 mmHg and serum lactate level over 2 mmol/L. The patient is noted to be suffering from impaired kidney function. […] A Staphylococcus aureus infection is confirmed, and antibiotics administered. […] The peptide is continued to be administered once daily to the patient until the patient is recovered.

[12] = Patient case, sterile inflammatory response following trauma (Example 11); assay type: in vivo, human; conditions: 4 mg/kg sub-cutaneous once daily, post traumatic sepsis, after a few days
From the text: The patient is admitted to an intensive care unit and placed in an induced coma. […] The patients' cultures fail to reveal a bacterial infection. After a few days of once daily administration of the peptide, markers of Systematic Inflammatory Response Syndrome (SIRS), including temperature, heart rate and breathing rate improve. The peptide is continued to be administered until SIRS markers have returned to normal.

SARS-COV-2 infection = experiment: Patient case, standalone SA inhibitor to reduce viral load (Example 12); assay type: in vivo, human; conditions: 4 mg/kg once daily sub-cutaneous, after a few days
From the text: A patient is brought into the hospital suffering from respiratory flu like symptoms. A blood sample is taken from the patient, who is confirmed by PCR analysis of viral RNA to have a SARS-COV-2 infection. […] Administration of the peptide continues until the patient is confirmed to be virus free by PCR.

COVID-19 virus infection = experiment: Patient case, standalone SA inhibitor, viral load and NETosis (Example 13); assay type: in vivo, human; conditions: 4 mg/kg once daily sub-cutaneous
[13] = Patient case, flare up of Chron's disease, dry powder inhaler (second Example 14); assay type: in vivo, human; conditions: one metered dose (1 mg/kg) each morning, after eight days
Protocol: […] […] The patient is advised to take one metered dose (1 mg/kg) each morning until symptoms abate.

[14] = system: NETosis in Neutrophils (H3.1 nucleosomes); experiment: NETosis quantified by release of H3.1 nucleosomes from stimulated neutrophils; conditions: 4 hours
Protocol: The ability of SA Inhibitor to reduce NETosis in Neutrophils stimulated by lipopolysaccharide (LPS, Sigma Aldrich, Product Number L4391-1MG) alone or in combination with Epidermal growth factor (Sigma Aldrich, Product Number SRP3027-500UG) was compared to the efficacy of a Src kinase Inhibitor (PP2, Sigma Aldrich, Product Number P0042-5MG) and a PAD4 inhibitor (GSK484, Cambridge Bioscience UK, Product Number CAY17488-1 mg) which is known to down regulate NETosis by preventing citrullination of histone proteins. […]
Tube-2 was placed into the magnet and after 10 minutes incubation the clear fraction (enriched cell suspension) collected by single pipette and transferred into a fresh 50 ml conical falcon tube (Tube-3) which was placed back into the magnet for a final, third separation. The clear fraction, containing purified, isolated neutrophils was transferred into a fresh 50 ml conical falcon tube (Tube-4) and the neutrophil cell Number, % viability and yield determined by cell counting and Trypan blue exclusion. […]

Chain of Src kinase (P12931 whole entry): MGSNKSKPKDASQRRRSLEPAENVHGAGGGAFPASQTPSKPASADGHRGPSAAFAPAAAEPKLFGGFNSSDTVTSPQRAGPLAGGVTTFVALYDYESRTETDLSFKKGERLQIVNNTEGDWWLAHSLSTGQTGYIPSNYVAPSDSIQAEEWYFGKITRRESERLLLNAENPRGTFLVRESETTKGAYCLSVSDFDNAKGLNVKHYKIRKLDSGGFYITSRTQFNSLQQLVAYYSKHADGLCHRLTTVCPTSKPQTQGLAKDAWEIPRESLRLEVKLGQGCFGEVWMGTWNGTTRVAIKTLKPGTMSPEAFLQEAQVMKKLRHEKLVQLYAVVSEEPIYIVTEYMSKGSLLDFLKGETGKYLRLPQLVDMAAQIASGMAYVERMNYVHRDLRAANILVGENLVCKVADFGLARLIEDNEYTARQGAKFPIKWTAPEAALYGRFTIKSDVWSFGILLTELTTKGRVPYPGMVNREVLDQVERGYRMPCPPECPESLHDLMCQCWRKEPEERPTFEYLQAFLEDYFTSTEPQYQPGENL

Compound: O=C(O)c1cccnc1 [Niacin]
- Src kinase activity (Src kinase): inhibited
- P38MAP kinase activity (P38MAP kinase): inhibited
- chemically induced lung fibrosis [1]: reduced

Compound: COc1cc(C(=O)N2CC[C@@H](O)[C@@H](N)C2)cc2nc(-c3cc4ccccc4n3CC3CC3)n(C)c12 [PAD4i, reference compound]
- suppression of NETosis by citrullinated nucleosome marker ([2]; LPS or LPS and EGF (FIG. 4C, 4D), inhibitor 0.1-10 uM): dose response reduction in citrullinated nucleosomes levels

Compound: C[C@]12CCC(=O)C[C@@H]1CC[C@@H]1[C@@H]2CC[C@]2(C)[C@@H](O)CC[C@@H]12 [dihydrotestosterone]
- relative expression of ACE2 (ACE2; A549, 0-100 nM dihydrotestosterone): slight negative correlation with dihydrotestosterone concentration
- expression of ACE2, dose response to stimulation (ACE2; LNCaP, 0-100 nM dihydrotestosterone): TMPRSS2, but not ACE2, showed a dose response
- TMPRSS2 expression increase (TMPRSS2 [3]; A549, 1 nM dihydrotestosterone, compared to cells grown in the absence of dihydrotestosterone): over 2 ×
- relative expression of TMPRSS2 (TMPRSS2 [3]; 0.1 nM dihydrotestosterone, compared to cells grown in the absence of dihydrotestosterone): approximately 3 ×
- relative expression of TMPRSS2 (TMPRSS2 [3]; 10 nM dihydrotestosterone, compared to the control): 6 ×
- TMPRSS2 relative expression (TMPRSS2 [4]): 168%
- TMPRSS2 relative expression (TMPRSS2 [5]): 120.9%
- level of NETosis (percentage of neutrophils undergoing NETosis) (Neutrophils (NETosis) [6]): increased with increasing concentrations of dihydrotestosterone

Compound: CNC(=O)c1ccc(N2C(=S)N(c3ccc(C#N)c(C(F)(F)F)c3)C(=O)C2(C)C)cc1F [enzalutamide, Enzalutamide, reference compound]
- expression of TMPRSS2 protein (TMPRSS2 [7]; 10 μM Enzalutamide): did not achieve down regulation

Compound: Ac-Pro-Pro-Pro-His-Pro-His-Ala-Arg-Ile-Lys-NH2 (Ac-PPPHPHARIK-NH2) [SA Inhibitor]
- expression of TMPRSS2 protein (TMPRSS2 [7]; 0-1 μM SA Inhibitor): decreased expression up to 10 nM SA Inhibitor followed by a progressive increase up to 1 μM
- effect on EGF suppression of TMPRSS2 expression (TMPRSS2 [4]; EGF alone and with DHT, cell line not specified (LNCaP and A549 tested)): reversed this inhibitory effect
- TMPRSS2 protein expression (TMPRSS2 [4]; LNCaP, SA Inhibitor in the absence of DHT stimulation, 72 hrs): 58.7%
- TMPRSS2 protein expression (TMPRSS2 [4]; LNCaP, SA Inhibitor with DHT stimulation (1 nM), 72 hrs): 60.4%
- TMPRSS2 protein expression (TMPRSS2 [5]; A549, SA Inhibitor in the absence of DHT stimulation, 72 hrs): 77.6%
- TMPRSS2 protein expression (TMPRSS2 [5]; A549, SA Inhibitor with DHT stimulation (1 nM), 72 hrs): 70.2%
- citrullinated nucleosomes ([2]; LPS trigger, 0.1 uM SA Inhibitor, LPS alone 158 ng/mL): 126.5 ng/mL
- citrullinated nucleosomes ([2]; LPS trigger, 10 uM SA Inhibitor, LPS alone 158 ng/mL): 66.6 ng/mL
- citrullinated nucleosomes ([2]; combined LPS and EGF, 0.1 uM SA Inhibitor, without inhibitor 208.5 ng/mL): 111.1 ng/mL
- effect on DHT increased NETosis (Neutrophils (NETosis) [6]; 20 ug/mL LPS trigger plus DHT, SA Inhibitor 1 nM-1 mM, 30 minutes preincubation): This increase is reversed
- effect on IL6 increased NETosis (Neutrophils (NETosis) [8]; LPS trigger plus IL6, SA Inhibitor checkerboard as Table 4): This increase is reversed
- effect on IL8 increased NETosis (Neutrophils (NETosis) [9]; LPS trigger plus IL8, SA Inhibitor checkerboard as Table 4): This increase is reversed
- level of NETosis [10]: shown to decrease in the treated neutrophils
- kidney function [11]: returns to normal
- markers of SIRS (temperature, heart rate, breathing rate) [11]: improve
- markers of SIRS (temperature, heart rate, breathing rate) [12]: improve
- viral load as determined by PCR (SARS-COV-2 infection): lower than what would have been expected in the absence of the administration of the peptide
- lung function / SpO2 (COVID-19 virus infection): improved lung function with a higher measured SpO2 level
- viral load, as measured by PCR (COVID-19 virus infection; after a few days): reduced and lower than would be expected in the absence of the peptide
- Chron's disease flare up outcome [13]: goes back into remission
- H3.1 NETosis derived nucleosome levels ([14]; LPS in combination with EGF, without inhibitor 641.9 ng/mL, inhibitor concentration not stated): 254.2 ng/mL
- H3.1 nucleosomes released ([14]; LPS trigger, 0.1 uM SA Inhibitor, LPS alone 523.2 ng/mL): 339.4 ng/mL

Compound: EGF: Epithelial Growth Factor (EGF, Sigma) (NSDSECPLSHDGYCLHDGVCMYIEALDKYACNCVVGYIGERCQYRDLKWWELR; UniProt P01133 971-1023, looked up) [reference compound]
- TMPRSS2 relative expression (TMPRSS2 [4]; LNCaP, 100 ng/ml EGF, 72 hrs): 62.8%
- TMPRSS2 relative expression (TMPRSS2 [5]; A549, 100 ng/ml EGF, 72 hrs): 797%

Compound: IL6: IL6 (Merck) used to activate NETosis in response to LPS [reference compound]
- level of NETosis (Neutrophils (NETosis) [8]; LPS trigger, IL6 0, 10, 50 and 100 ng/mL): increased with increasing concentrations of IL6

Compound: IL8: IL8 (Merck) used to activate NETosis in response to LPS [reference compound]
- level of NETosis (Neutrophils (NETosis) [9]; LPS trigger, IL8 0, 1, 10 and 100 nM): increased with increasing concentrations of IL8
